target: T1, wild-type menin / MLL-AF9 fusion protein (Homo sapiens, UniProt O00255); assay: AlphaLISA menin/MLL binding assay, wild-type menin (Assay 1); conditions: biotinylated wild-type menin 5 nM, MLL-AF9-FLAG lysate
T1 construct: made in house; host or cells: E. coli (menin); HEK293 cleared lysate (MLL-AF9-FLAG)
T1 sequence (O00255 1-610): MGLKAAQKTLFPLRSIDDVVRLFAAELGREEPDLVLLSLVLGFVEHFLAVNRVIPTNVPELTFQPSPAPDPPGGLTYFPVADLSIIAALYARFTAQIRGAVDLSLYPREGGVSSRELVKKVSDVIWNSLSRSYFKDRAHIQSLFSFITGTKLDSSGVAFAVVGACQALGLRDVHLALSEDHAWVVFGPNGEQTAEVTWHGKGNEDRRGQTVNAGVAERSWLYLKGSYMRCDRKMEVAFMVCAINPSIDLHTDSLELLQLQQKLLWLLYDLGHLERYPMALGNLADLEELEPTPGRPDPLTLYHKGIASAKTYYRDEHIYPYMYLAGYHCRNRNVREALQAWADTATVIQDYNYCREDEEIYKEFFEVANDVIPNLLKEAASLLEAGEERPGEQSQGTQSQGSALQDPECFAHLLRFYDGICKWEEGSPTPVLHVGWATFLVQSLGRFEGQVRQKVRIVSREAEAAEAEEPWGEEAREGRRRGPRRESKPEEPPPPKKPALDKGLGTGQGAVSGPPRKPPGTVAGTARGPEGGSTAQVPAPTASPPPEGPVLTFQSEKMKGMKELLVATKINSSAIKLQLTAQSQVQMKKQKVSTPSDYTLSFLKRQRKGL
Procedure: Potencies of inhibitor compounds against menin/MLL binding were assessed by AlphaLISA assay using biotinylated (1) wild-type menin or (2) mutated menin (described in Nature (2012) Vol. 482, pp. 542-548) and MLL-AF9 fusion protein bearing a FLAG epitope at its C-terminus. Menin proteins were expressed in E. coli and covalently modified with biotin using EZ-Link™ Sulfo-NHS-Biotin (ThermoFisher Cat. No. 21217) according to manufacturer's protocol. MLL1-1,396 fused to AF91-92 and the C-terminal FLAG peptide was expressed in HEK293 cells and used as a lysate cleared at 21,000×g for 10 min.
Compounds (2 μL of solutions in DMSO) were dispensed in white 96-well half-area plates (Corning Cat. No. 3693) and incubated for 30 min at RT with 5 nM biotinylated menin and appropriate amount of MLL-AF9-FLAG lysate in 40 μL of 50 mM Tris-HCl buffer pH 7.4 containing 5% (v/v) DMSO, 50 mM NaCl, 0.01% (w/v) bovine serum albumin (BSA) and 1 mM DTT. To this incubation mixture, 40 μl of AlphaLISA anti-FLAG acceptor (PerkinElmer Cat. No. AL112C) and streptavidin donor (PerkinElmer Cat. No. 6760002) beads (10 μg/mL each) was added and incubation continued at RT for 60 min. Alpha (amplified luminescent proximity homogeneous assay) signal was measured on an Envision multi-label plate reader at the end of the incubation. All steps were conducted under dim fluorescent light.
These percent inhibition values were regressed against compound concentrations in the assay using four parameter logit non-linear curve fitting (XLFit, IDBS). The IC50 values were derived from the curve fitting as inflection points on the dose-response curves and are set out in Table 1 below.

| IC50 | Compound |
| --- | --- |
| ≥ 1000 nM | FC(F)(F)Cc1cc2c(N3CC4(CN(CC5COC5)C4)C3)ncnc2s1 [Example 73, 4-(6-(oxetan-3-ylmethyl)-2,6-diazaspiro[3.3]heptan-2-yl)-6-(2,2,2-trifluoroethyl)thieno[2,3-d]pyrimidine] |
| ≥ 1000 nM | FC(F)(F)Cc1cc2c(N3CC4(CN(CC5CC(F)(F)C5)C4)C3)ncnc2s1 [Example 74, 4-(6-((3,3-difluorocyclobutyl)methyl)-2,6-diazaspiro[3.3]heptan-2-yl)-6-(2,2,2-trifluoroethyl)thieno[2,3-d]pyrimidine] |
| ≥ 1000 nM | FC(F)(F)Cc1ccc2ncnc(N3CC4(CN(CC5CCOCC5)C4)C3)c2c1 [Example 91, 4-(6-((tetrahydro-2H-pyran-4-yl)methyl)-2,6-diazaspiro[3.3]heptan-2-yl)-6-(2,2,2-trifluoroethyl)quinazoline] |
| 100 to 1000 nM | CCC(C)CN1CCC2(C1)CN(c1ncnc3sc(CC(F)(F)F)cc13)C2 (stereo not shown) [Example 94, 4-(6-(2-methylbutyl)-2,6-diazaspiro[3.4]octan-2-yl)-6-(2,2,2-trifluoroethyl)thieno[2,3-d]pyrimidine] |
| 100 to 1000 nM | CCC(C)CN1CCC2(CC1)CN(c1ncnc3sc(CC(F)(F)F)cc13)C2 (stereo not shown) [Example 100, 4-(7-(2-methylbutyl)-2,7-diazaspiro[3.5]nonan-2-yl)-6-(2,2,2-trifluoroethyl)thieno[2,3-d]pyrimidine] |
| 100 to 1000 nM | CC(C)CN1CCC2(CC1)CN(c1ncnc3sc(CC(F)(F)F)cc13)C2 [Example 101, 4-(7-isobutyl-2,7-diazaspiro[3.5]nonan-2-yl)-6-(2,2,2-trifluoroethyl)thieno[2,3-d]pyrimidine] |
| 100 to 1000 nM | FC(F)(F)Cc1cc2c(N3CC4(CCN(C[C@H]5CC[C@H](C(F)(F)F)CC5)CC4)C3)ncnc2s1 [Example 102, 6-(2,2,2-trifluoroethyl)-4-(7-(((1r,4r)-4-(trifluoromethyl)cyclohexyl)methyl)-2,7-diazaspiro[3.5]nonan-2-yl)thieno[2,3-d]pyrimidine] |
| 100 to 1000 nM | O=S1(=O)CCC(N2CCC3(CC2)CN(c2ncnc4sc(CC(F)(F)F)cc24)C3)CC1 [Example 104, 4-(2-(6-(2,2,2-trifluoroethyl)thieno[2,3-d]pyrimidin-4-yl)-2,7-diazaspiro[3.5]nonan-7-yl)tetrahydro-2H-thiopyran 1,1-dioxide] |
| 100 to 1000 nM | CC(=O)N[C@H]1CC[C@H](CN2CCC3(CC2)CN(c2ncnc4sc(CC(F)(F)F)cc24)C3)CC1 [Example 105, N-((1r,4r)-4-((2-(6-(2,2,2-trifluoroethyl)thieno[2,3-d]pyrimidin-4-yl)-2,7-diazaspiro[3.5]nonan-7-yl)methyl)cyclohexyl)acetamide] |
| 100 to 1000 nM | CC(C)CN1CCC2(CC1)CCN(c1ncnc3sc(CC(F)(F)F)cc13)C2 [Example 113, 4-(8-isobutyl-2,8-diazaspiro[4.5]decan-2-yl)-6-(2,2,2-trifluoroethyl)thieno[2,3-d]pyrimidine] |
| 100 to 1000 nM | CCC(C)CN1CCC2(CC1)CCN(c1ncnc3sc(CC(F)(F)F)cc13)C2 (stereo not shown) [Example 114, 4-(8-(2-methylbutyl)-2,8-diazaspiro[4.5]decan-2-yl)-6-(2,2,2-trifluoroethyl)thieno[2,3-d]pyrimidine] |
| 100 to 1000 nM | FC(F)(F)Cc1cc2c(N3CCC4(CCN(CC5CCOCC5)CC4)C3)ncnc2s1 [Example 115, 4-(8-((tetrahydro-2H-pyran-4-yl)methyl)-2,8-diazaspiro[4.5]decan-2-yl)-6-(2,2,2-trifluoroethyl)thieno[2,3-d]pyrimidine] |
| ≥ 1000 nM | FC(F)(F)Cc1cc2c(N3CCC4(CCN(Cc5ccccc5)CC4)C3)ncnc2s1 [Example 116, 4-(8-benzyl-2,8-diazaspiro[4.5]decan-2-yl)-6-(2,2,2-trifluoroethyl)thieno[2,3-d]pyrimidine] |

Continued, compound first:

| Compound | IC50 |
| --- | --- |
| CC(C)(N)CC(=O)N1CC2(C1)CN(c1ncnc3sc(CC(F)(F)F)cc13)C2 [Example 77, 3-amino-3-methyl-1-(6-(6-(2,2,2-trifluoroethyl)thieno[2,3-d]pyrimidin-4-yl)-2,6-diazaspiro[3.3]heptan-2-yl)butan-1-one] | 100 to 1000 nM |
| O=C(C1CCCNC1)N1CC2(C1)CN(c1ncnc3sc(CC(F)(F)F)cc13)C2 (stereo not shown) [Example 78, piperidin-3-yl(6-(6-(2,2,2-trifluoroethyl)thieno[2,3-d]pyrimidin-4-yl)-2,6-diazaspiro[3.3]heptan-2-yl)methanone] | 100 to 1000 nM |
| O=C(C1CCCCN1)N1CC2(C1)CN(c1ncnc3sc(CC(F)(F)F)cc13)C2 (stereo not shown) [Example 79, piperidin-2-yl(6-(6-(2,2,2-trifluoroethyl)thieno[2,3-d]pyrimidin-4-yl)-2,6-diazaspiro[3.3]heptan-2-yl)methanone] | 100 to 1000 nM |
| CC(C)N1CC2(CCN(c3ncnc4sc(CC(F)(F)F)nc34)CC2)C1 [Example 80, 7-(2-isopropyl-2,7-diazaspiro[3.5]nonan-7-yl)-2-(2,2,2-trifluoroethyl)thiazolo[5,4-d]pyrimidine] | ≥ 1000 nM |
| CC(C)CN1CC2(CCN(c3ncnc4sc(CC(F)(F)F)nc34)CC2)C1 [Example 81, 7-(2-isobutyl-2,7-diazaspiro[3.5]nonan-7-yl)-2-(2,2,2-trifluoroethyl) thiazolo[5,4-d]pyrimidine] | ≥ 1000 nM |
| FC(F)(F)Cc1nc2c(N3CCC4(CCN(Cc5ccccc5)C4)C3)ncnc2s1 (stereo not shown) [Example 82, 7-(7-benzyl-2,7-diazaspiro[4.4]nonan-2-yl)-2-(2,2,2-trifluoroethyl)thiazolo[5,4-d]pyrimidine] | 100 to 1000 nM |
| Cc1c(CN2CCC3(CCN(c4ncnc5sc(CC(F)(F)F)nc45)C3)C2)ccc2[nH]c(C#N)cc12 (stereo not shown) [Example 83, 4-methyl-5-((7-(2-(2,2,2-trifluoroethyl)thiazolo[5,4-d]pyrimidin-7-yl)-2,7-diazaspiro[4.4]nonan-2-yl)methyl)-1H-indole-2-carbonitrile] | < 100 nM |
| CS(=O)(=O)Nc1ccc(CN2CCC3(CCN(c4ncnc5sc(CC(F)(F)F)nc45)C3)C2)cc1 (stereo not shown) [Example 84, N-(4-((7-(2-(2,2,2-trifluoroethyl)thiazolo[5,4-d]pyrimidin-7-yl)-2,7-diazaspiro[4.4]nonan-2-yl)methyl)phenyl)methanesulfonamide] | < 100 nM |
| CC(C)CN1CC2(CCN(c3ccnc4ccc(CC(F)(F)F)cc34)CC2)C1 [Example 85, 4-(2-isobutyl-2,7-diazaspiro[3.5]nonan-7-yl)-6-(2,2,2-trifluoroethyl)quinoline] | ≥ 1000 nM |
| FC(F)(F)Cc1ccc2nccc(N3CCC4(CC3)CN(CC3CC3)C4)c2c1 [Example 87, 4-(2-(cyclopropylmethyl)-2,7-diazaspiro[3.5]nonan-7-yl)-6-(2,2,2-trifluoroethyl)quinoline] | ≥ 1000 nM |
| CC(C)CN1CC2(CCN(c3ncnc4ccc(CC(F)(F)F)cc34)CC2)C1 [Example 89, 4-(2-isobutyl-2,7-diazaspiro[3.5]nonan-7-yl)-6-(2,2,2-trifluoroethyl) quinazoline] | ≥ 1000 nM |
| FC(F)(F)Cc1cc2c(N3CC4(CCN(Cc5ccccc5)C4)C3)ncnc2s1 [Example 95, 4-(6-benzyl-2,6-diazaspiro[3.4]octan-2-yl)-6-(2,2,2-trifluoroethyl)thieno[2,3-d]pyrimidine] | ≥ 1000 nM |
| CC(=O)Nc1ccc(CN2CCC3(CC2)CN(c2ncnc4sc(CC(F)(F)F)cc24)C3)cc1 [Example 103, N-(4-((2-(6-(2,2,2-trifluoroethyl)thieno[2,3-d]pyrimidin-4-yl)-2,7-diazaspiro[3.5]nonan-7-yl)methyl)phenyl)acetamide] | 100 to 1000 nM |
| FC(F)(F)Cc1cc2c(N3CCC4(CN(Cc5ccccc5)C4)C3)ncnc2s1 [Example 111, 4-(2-benzyl-2,6-diazaspiro[3.4]octan-6-yl)-6-(2,2,2-trifluoroethyl)thieno[2,3-d]pyrimidine] | 100 to 1000 nM |
| Cc1c(CN2CC3(CCN(c4ncnc5sc(CC(F)(F)F)cc45)C3)C2)ccc2[nH]c(C#N)cc12 [Example 112, 4-methyl-5-((6-(6-(2,2,2-trifluoroethyl)thieno[2,3-d]pyrimidin-4-yl)-2,6-diazaspiro[3.4]octan-2-yl)methyl)-1H-indole-2-carbonitrile] | 100 to 1000 nM |
